Patent US10905704B2, “Agents and methods using thereof for the prevention and treatment of stem cell muscle disorders” (ECOLE POLYTECHNIQUE FEDERALE DE LAUSANNE (EPFL), priority 2015, dated 2021)

Key:
[1] = system: MuSCs; experiment: Gene expression analyses (qPCR) in freshly isolated MuSCs of NR-treated mice; assay type: cell-based, C57BL/6J mice
Description: Gene expression analyses. Total RNA was extracted from MuSCs by sorting cells directly into TriPure RNA isolation reagent (Roche) or from cultured C2C12 myoblasts using TriPure reagent according to the product manual. Total RNA was transcribed to cDNA using QuantiTect Reverse Transcription Kit (Qiagen). Expression of selected genes was analyzed using the LightCycler480 system (Roche) and LightCycler® 480 SYBR Green I Master reagent (Roche). The acidic ribosomal protein 36b4 gene (ribosomal protein, large, P0, Rp1p0) was used as housekeeping reference. FACS based muscle stem cell isolation. Gastrocnemius, soleus, quadriceps, and tibialis anterior muscles from both limbs were excised and transferred into PBS on ice. All muscles were trimmed, minced and digested with 0.1 mg/ml of type II collagenase (Sigma) in PBS for 15 min at 37° C. Samples were then centrifuged at 750 g for 5 min and further digested in 1 mg/ml of collagenase/dispase (Roche) for 30 mins at 37° C. Muscle slurries were sequentially filtered through 100, 70 and 40 μm cell strainers. The isolated cells were then washed in washing buffer (PBS+2.5% FBS) then resuspended in 200 μl of washing buffer and immediately stained with antibodies, including the MuSC markers CD31 (1:800, eBioscience, eFluor450 conjugated); CD34 (1:200, eBioscience, eFluor660 conjugated); CD45 (1:200, eBioscience, eFluor450 conjugated); CD11b (1:400, eBioscience, eFluor450 conjugated); Sca-1 (1:1000, eBioscience, PE-Cy7 conjugated); and α7 integrin (1:300, MBL) for 30 min at 4° C. Secondary staining was performed with a mixture of goat anti-mouse antibody (1:800, Life technologies, Alexa Fluor 488 conjugated) and propidium Iodide (PI, Sigma) for 15 min at 4° C. in the dark. Stained cells were analysed and sorted using the FACSAria II instrument (BD Biosciences). Debris and dead cells were excluded by forward scatter, side scatter and PI gating. Cells were sorted either directly on slides for immunostaining and into TriPure (Roche) reagent for RNA extraction.

[2] = system: C2C12 myoblasts; experiment: Western blot of UPRmt markers, prohibitins and cell cycle proteins in NR-treated C2C12 myoblasts; assay type: cell-based, mouse
Description: Western blotting performed as described in Example 3. The following primary antibodies were used: anti-HSP60 (Enzo Life Science); anti-β-actin (Sigma); anti-PHB (Biolegend); anti-PHB2 (Santa Cruz); anti-CKD4 (Novus biologicals); anti-CCND1 (Santa Cruz); anti-CCND3 (Santa Cruz); anti-HSP90 (BD Biosciences); HSP70 (Abcam); and anti-CLPP (Sigma). Cell culture and treatments were prepared according to description of Example 3. C2C12 mouse myoblasts were grown in DMEM (4.5 g/1 glucose, Gibco) supplemented with 10% FBS and penicillin/streptomycin (1×, Gibco). Cell transformation with Phb (Santa Cruz) and Phb2 shRNA (Santa Cruz) were performed using jetPEI DNA transfection kit (Polyplus), according to manufacturer's instructions. Cells were treated with 1 mM NR or PBS for 6 hours before cell harvesting or fixation. Respirometry on C2C12 myoblasts. Basal and uncoupled oxygen consumption rates (OCRs) and the extracellular acidification rate (ECAR) was measured using the Seahorse extracellular flux bioanalyzer (XF96, Seahorse Bioscience Inc.). To uncouple mitochondria, 5 uM of FCCP was injected after a basal respiration measurement. All measurements were performed in triplicates and results were normalized to total protein amount (C2C12 cells), assessed using a Bradford kit (Bio-Rad).

[3] = system: MuSCs; experiment: Senescence and apoptosis marker staining of MuSCs from NR-treated mice (γH2AX, β-galactosidase, cleaved CASP3); assay type: cell-based, C57BL/6J mice
Description: Histology. TA muscles were harvested and the immunestaining was performed as described in Example 2. The following antibodies were used: anti-γH2AX […] (Millipore), anti-activated-caspase3 (Cell signaling). Secondary antibodies were coupled to Alexa-488 or Alexa-568 fluorochromes (Life technology), and nuclei were stained with DAPI (Invitrogen). β-galactosidase assay. MuSCs were sorted directly and cultured primary MuSCs were grown on 8 chamber slides (Thermo Scientific). Senescence-associated β-galactosidase activity was detected using the senescence β-galactosidase staining kit (Cell signaling), according to manufacturer's instructions. Cell culture and treatments. FACS sorted MuSCs were grown on a 10% Matrigel (Corning)-coated dish and flasks with Fams F-10 media (Gibco), supplemented with 20% fetal bovine serum (FBS, Gibco), 2.5 ng/ml basic fibroblast growth factor (bFGF, Sigma) and penicillin/streptomycin (1×, Gibco). Dishes were coated with 10% growth factor-free Matrigel solution on ice for 7 min then transferred to a 37° C. cell culture incubator overnight before use. Cells were grown for three generations in vitro before experiments with cells plated and passaged at 10^3 cells/ml and 50% confluencies, respectively. C2C12 mouse myoblasts were grown in DMEM (4.5 g/1 glucose, Gibco) supplemented with 10% FBS and penicillin/streptomycin (1×, Gibco).

[4] = system: MuSCs; experiment: Senescence marker staining of MuSCs from Mdx mice (β-galactosidase, γH2AX, cleaved caspase-3); assay type: cell-based; conditions: for senescence by β-galactosidase staining: FIG. 6J
Description: β-galactosidase assay. MuSCs were sorted directly and cultured primary MuSCs were grown on 8 chamber slides (Thermo Scientific). Senescence-associated β-galactosidase activity was detected using the senescence β-galactosidase staining kit (Cell signaling), according to manufacturer's instructions. Cardiotoxin-induced muscle damage and Histology as described in Example 2. The following antibodies were used: anti-eMHC (Developmental Studies Hybridoma Bank, DSHB, University of Iowa), anti-Pax7 (DSHB, University of Iowa), anti-γH2AX […] (Millipore) and anti-activated-caspase3 (Cell signaling).

[5] = Grip strength test; assay type: in vivo, C57BL/6J mice; conditions: aged mice, NR diet, FIG. 3G
Description: Grip strength test. Muscle strength was assessed by a grip strength behavior task. The grasp strength of each mouse for all four limbs was measured on a pull-grid assembly connected to a grip strength meter (Columbus Instruments). The mouse was drawn along a straight line parallel to the grid until the grip is broken, providing the peak force in grams. This was repeated 4 times with 5 minute intervals between measurements.

[6] = freshly isolated aged MuSCs, NR diet, FIG. 4H
[7] = MuSCs from NR-treated mice cultured ex vivo for three generations
[8] = MuSCs of NR-treated Mdx mice, cultured three generations, FIG. 6K

NC(=O)c1ccc[n+]([C@@H]2O[C@H](CO)[C@@H](O)[C@H]2O)c1 [NR, nicotinamide riboside]
mitochondrial TCA and OXPHOS gene expression ([1]; aged MuSCs, NR diet, FIG. 4I): largely rescued
expression of cell cycle related genes [1, 6]: increasing the expression of cell cycle related genes
mRNA levels of CDKN1A and related senescence indicators [1, 6]: significantly reduced
Phb1 and Phb2 expression ([1]; young and aged MuSCs, NR 400 mg/kg/day 6 weeks, FIG. 5B): induced Phb1 and Phb2 expression
dependence of NR effects on cell senescence on prohibitins ([2]; C2C12, Phb1 and Phb2 shRNA knockdown with 6-hour NR treatment, overexpression, FIG. 5C,D): PHB-dependent
Phb1 and Phb2 expression ([2]; C2C12 myoblasts, NR treatment, FIG. 5A): induced Phb1 and Phb2 expression
UPRmt markers (HSP60, CLPP) ([2]; NR-treated C2C12 mouse myoblasts, FIG. 5A): similarly induced
cleaved caspase-3 (CASP3) immunostaining [3, 7]: reductions
γH2AX positive nuclei [3, 7]: reductions
γH2AX positive nuclei ([3]; freshly isolated MuSCs from aged mice, NR diet, FIG. 4A,B): staining was reduced
β-galactosidase staining (senescence) ([3]; freshly sorted MuSCs from aged mice, NR diet): reduction of the nuclear damage response was confirmed
senescence by β-galactosidase staining ([4]; MuSCs from Mdx mice additionally treated with NR in vitro (6 hours)): further reduction in senescence
senescence by β-galactosidase staining ([4]; MuSCs isolated from NR-treated Mdx mice): less prone to senescence
cleaved caspase-3 immunostaining [4, 8]: attenuation
γH2AX immunostaining [4, 8]: attenuation
limb grip strength [5]: improvements
